From PubChem BioAssay (NCI) come the findings set out here.

Some test systems named below: A498 renal; COLO 205 colon; NCI-H226 lung; OVCAR-4 ovarian; OVCAR-8 ovarian; SK-MEL-2 melanoma; TK-10 renal; UACC-62 melanoma; HCT-116 colon; SNB-19 CNS.
Test in all cases: NCI-60 cell line screen, 48 h

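Interpolation was linear, between the two tested concentrations surrounding the appropriate level; five concentrations were tested over 48 hours in 96-well plates. GI50 marks 50% less growth. Definition used: TGI = concentration required for complete inhibition of growth.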

On to `CC(=O)O[C@H]1CCN2C(=O)C=CC(OCc3ccccc3)C12` (stereo partly drawn), for which the TGI in the assay on A498 renal, with COLO 205 colon, in the assay with NCI-H226 lung, with OVCAR-4 ovarian, in the assay with OVCAR-8 ovarian and in the assay with SK-MEL-2 melanoma was more than 100 µM throughout. Moreover, the TGI in the assay with TK-10 renal and with UACC-62 melanoma was more than 100 µM throughout.
On to `COc1ccc(C2CC(c3ccc(Nc4ccnc5cc(Cl)ccc45)cc3)=NN2C=O)cc1` (stereo not drawn), for which the GI50 with A498 renal is more than 100 µM; in the assay on COLO 205 colon, 3.56 µM; in the assay on HCT-116 colon, 9.97 µM; in the assay with NCI-H226 lung, more than 100 µM; with OVCAR-4 ovarian it was 13.4 µM; in the assay on OVCAR-8 ovarian, 69.8 µM. Further, the figures for the GI50 in the assay with SNB-19 CNS, in the assay with TK-10 renal and in the assay with UACC-62 melanoma were 56.5 µM, 20.9 µM and 5.99 µM, respectively. Besides, the TGI in the assay with A498 renal, with COLO 205 colon, in the assay with HCT-116 colon, in the assay on NCI-H226 lung, in the assay with OVCAR-4 ovarian and with OVCAR-8 ovarian was more than 100 µM in each case. In addition, the TGI in the assay with SNB-19 CNS is more than 100 µM; in the assay with TK-10 renal, 48.2 µM; in the assay on UACC-62 melanoma it was 49.8 µM.
Regarding `CCOc1cn(C2OC(CO)C(O)C2O)c(=O)[nH]c1=O` (stereo not drawn), the TGI in the assay with A498 renal, in the assay with COLO 205 colon, with HCT-116 colon, in the assay on NCI-H226 lung, with OVCAR-8 ovarian and in the assay on SK-MEL-2 melanoma was more than 100 µM each time. The TGI in the assay with SNB-19 CNS, in the assay on TK-10 renal and in the assay with UACC-62 melanoma was more than 100 µM throughout.
Regarding `Cc1ccc(/C=C(\NC(=O)c2ccccc2)c2nc3ccccc3[nH]2)cc1`, the TGI with A498 renal was more than 100 µM; in the assay with COLO 205 colon, more than 100 µM; in the assay on HCT-116 colon, more than 100 µM; with OVCAR-4 ovarian, more than 100 µM; with OVCAR-8 ovarian, more than 100 µM; in the assay on SK-MEL-2 melanoma, 80.1 µM. For the same compound, the TGI in the assay on SNB-19 CNS, in the assay with TK-10 renal and in the assay with UACC-62 melanoma was more than 100 µM throughout.
On to `COc1cc(/C=C/c2cc(/C=C/c3ccc(O)c(OC)c3)n(C(=O)Nc3ccccc3Cl)n2)ccc1O`, for which the GI50 in the assay with A498 renal was 0.487 µM; with COLO 205 colon it was 1.49 µM; in the assay on NCI-H226 lung it was 0.617 µM; in the assay on OVCAR-4 ovarian, 0.722 µM; in the assay with OVCAR-8 ovarian, 0.378 µM; in the assay on SK-MEL-2 melanoma it was 0.397 µM. Moreover, the figures for the GI50 in the assay on SNB-19 CNS, with TK-10 renal and in the assay on UACC-62 melanoma were 0.743 µM, 0.601 µM and 0.425 µM, respectively. Besides, the TGI in the assay on A498 renal amounted to 2.04 µM; in the assay on COLO 205 colon, 2.91 µM; in the assay with NCI-H226 lung, 2.74 µM; with OVCAR-4 ovarian, 9.09 µM; with OVCAR-8 ovarian, 1.6 µM; with SK-MEL-2 melanoma, 1.6 µM. Further, the results for the TGI in the assay on SNB-19 CNS, with TK-10 renal and with UACC-62 melanoma were 4.23 µM, 3.6 µM and 2.5 µM, respectively.
As for `C=C1C(=O)O[C@H]2[C@H](OC(C)=O)[C@@H](C)CCCC3(C)OC3CCC3(CO3)[C@H](O)C[C@@H]12` (stereo partly drawn), the GI50 in the assay with COLO 205 colon is 3.8 µM; with HCT-116 colon, 3.7 µM; with NCI-H226 lung, 10.9 µM; with OVCAR-4 ovarian, 3.77 µM; in the assay on OVCAR-8 ovarian it was 17.5 µM; with SK-MEL-2 melanoma, 26.3 µM. Moreover, the GI50 with SNB-19 CNS is 25.7 µM; with TK-10 renal, 7.39 µM; in the assay with UACC-62 melanoma, 11.8 µM. Also, the TGI in the assay on COLO 205 colon is 65.6 µM; with HCT-116 colon it was 13.1 µM; in the assay on NCI-H226 lung it was 31.7 µM; with OVCAR-4 ovarian it was 53.8 µM; in the assay on OVCAR-8 ovarian it was more than 100 µM; in the assay on SK-MEL-2 melanoma, more than 100 µM. In addition, the TGI in the assay with SNB-19 CNS came to 83.1 µM; in the assay with TK-10 renal, 21.2 µM; with UACC-62 melanoma, 24.1 µM.
For `Cc1[nH]c2ccccc2c1CC/C(=N\Nc1ccccc1)c1ccccc1`, the TGI with A498 renal, in the assay with HCT-116 colon, in the assay on NCI-H226 lung, in the assay on OVCAR-4 ovarian, in the assay with OVCAR-8 ovarian and with SK-MEL-2 melanoma was more than 100 µM each time. Besides, the TGI in the assay with TK-10 renal and with UACC-62 melanoma was more than 100 µM throughout.
Consider `CCOC(=O)C(CCC(N)=O)(CCC(=O)OC)C(=O)OCC`, for which the TGI in the assay with A498 renal, with COLO 205 colon, in the assay with HCT-116 colon, with NCI-H226 lung, in the assay with OVCAR-4 ovarian and in the assay on OVCAR-8 ovarian was more than 100 µM in each case. Further, the TGI in the assay with SNB-19 CNS, in the assay on TK-10 renal and in the assay with UACC-62 melanoma was more than 100 µM throughout.
In the case of `NC1CCCCC1N.O=C1C=C/C(=C(/c2ccc(O)c(Br)c2)c2ccccc2S(=O)(=O)[O-])C=C1Br.O=C1C=C/C(=C(/c2ccc(O)c(Br)c2)c2ccccc2S(=O)(=O)[O-])C=C1Br.[Pt+4]`, the GI50 with A498 renal is 22.1 µM; in the assay on COLO 205 colon it was 1.64 µM; in the assay on HCT-116 colon it was 0.79 µM; in the assay with OVCAR-4 ovarian it was 2.35 µM; in the assay on OVCAR-8 ovarian, 1.27 µM; with SK-MEL-2 melanoma, 10.1 µM. In addition, the figures for the GI50 in the assay with SNB-19 CNS, with TK-10 renal and in the assay with UACC-62 melanoma were 7.14 µM, 57.2 µM and 9.45 µM, respectively. The TGI in the assay on A498 renal was more than 100 µM; in the assay with COLO 205 colon it was 40.6 µM; in the assay with HCT-116 colon it was more than 100 µM; in the assay on OVCAR-4 ovarian, more than 100 µM; in the assay on OVCAR-8 ovarian, more than 100 µM; with SK-MEL-2 melanoma, more than 100 µM. Also, the TGI in the assay with SNB-19 CNS, in the assay on TK-10 renal and in the assay with UACC-62 melanoma was more than 100 µM each time.
As to `COC(=O)c1ncc2c(=O)[nH]c3ccccc3c2c1C(=O)OC`, the TGI in the assay on A498 renal, in the assay on HCT-116 colon, in the assay on NCI-H226 lung, with OVCAR-4 ovarian, with OVCAR-8 ovarian and in the assay with SK-MEL-2 melanoma was more than 100 µM throughout. The TGI with SNB-19 CNS, in the assay on TK-10 renal and with UACC-62 melanoma was more than 100 µM each time.
With `CC(C)(C)C(=O)Nc1cccc2oc(-c3ccccc3)cc12`, the TGI in the assay on A498 renal, with COLO 205 colon, in the assay on OVCAR-4 ovarian, in the assay with OVCAR-8 ovarian, in the assay on SK-MEL-2 melanoma and in the assay on SNB-19 CNS was more than 100 µM each time. Also, in the assay on UACC-62 melanoma, the TGI is more than 100 µM.
Consider `COc1cc(CC2c3cc(OC)c(OC)cc3CCN2C)ccc1O` (stereo not drawn), for which the TGI in the assay on A498 renal, in the assay on HCT-116 colon, in the assay on OVCAR-4 ovarian, in the assay on OVCAR-8 ovarian, in the assay on SK-MEL-2 melanoma and in the assay on SNB-19 CNS was more than 100 µM each time. The compound further had a TGI in the assay with TK-10 renal of more than 100 µM.
